These results are taken from patent US9549942B2, “Composition for preventing or treating degenerative brain diseases including compound downregulating expression of BACE1 proteins” (RESEARCH & BUSINESS FOUNDATION SUNGKYUNKWAN UNIVERSITY, priority 2013, dated 2017).

Counter-ions that a name gives are not always drawn. Like-named read-outs stand apart in the source and are kept apart here.

One experiment relates to BACE1 promoter. Kind of experiment: BACE1 promoter activity, BACE1 promoter-luciferase vector, Dual-Luciferase assay. It counts as cell-based. The conditions noted are these: Homo sapiens, read-out: decrease of BACE1 promoter activity. How it is done:
A BACE1 promoter-luciferase vector was transfected to brain nerve cells (SH-SY5Y). […] A change in a BACE1 promoter activity was measured using a Dual-Luciferase assay kit.

The subject of another experiment is BACE1 proteins. The experiment can be described thus: Amount of expression of BACE1 proteins in brain nerve cells (Western blot). Conditions: SH-SY5Y cells, actin control. The class given is cell-based, human. The procedure: As brain nerve cells, human neuroblastoma cells SH-SY5Y were used. […] The SH-SY5Y cells were plated at 5×10^5 cells/well into a 6-well plate. […] Then, the amount of expression of BACE1 proteins was determined by Western blot. Actin was used throughout as a control.

The mark [1] stands for this setting: SH-SY5Y transfected with BACE1 promoter-luciferase vector, 10 μM for 24 hours.
Setting [2] is: treated 24 hours at 0.625, 1.25, 2.5, 5 and 10 μM.

Consider `Clc1cnccn1` [2-chloropyrazine], for which the inhibition at 10 µM in the experiment with BACE1 promoter (setting [1]) was ≥ 50%.

Consider `Cn1cnc([N+](=O)[O-])c1Sc1ncnc2nc[nH]c12` [azathioprine], for which the inhibition at 10 µM with BACE1 promoter (setting [1]) was ≥ 50%.

Regarding `COc1cc2c(c(OC)c1OC)-c1ccc(OC)c(=O)cc1[C@@H](NC(C)=O)CC2` [colchicine], in the experiment with BACE1 promoter (SH-SY5Y, 24 h), the inhibition at 10 µM is ≥ 50%.

Turning to `O=C1Nc2ccc(Cl)cc2[C@@](C#CC2CC2)(C(F)(F)F)O1` [efavirenz], the inhibition at 10 µM in the experiment on BACE1 promoter (setting [1]) was ≥ 50%.

As for `CCN(CC)C(=O)/C(C#N)=C/c1cc(O)c(O)c([N+](=O)[O-])c1` [entacapone], in the experiment with BACE1 promoter (setting [1]), the inhibition at 10 µM is ≥ 50%.

With `CC(C)=CCC/C(C)=C/CC/C(C)=C/CO` [farnesol], the “amount of expression of BACE1 proteins” value in the experiment with BACE1 proteins (treated 24 hours at 0.001, 0.01 and 0.1 μM) was “decreased at 0.01 μM and 0.1 μM”. Also, the inhibition at 10 µM with BACE1 promoter (setting [1]) is ≥ 50%.

As to `COC(=O)Nc1nc2cc(Sc3ccccc3)ccc2[nH]1` [fenbendazole], the “amount of expression of BACE1 proteins” value with BACE1 proteins (setting [2]) is “decreased at 0.625 μM to 10 μM”. In addition, the inhibition at 10 µM in the experiment with BACE1 promoter (setting [1]) is ≥ 50%.

Take `CC1(C)O[C@@H]2C[C@H]3[C@@H]4C[C@H](F)C5=CC(=O)C=C[C@]5(C)[C@H]4[C@@H](O)C[C@]3(C)[C@]2(C(=O)CO)O1` [flunisolide]: the inhibition at 10 µM in the experiment on BACE1 promoter (setting [1]) was ≥ 50%.

As to `COc1ccc2c(c1)[nH]c1c(C)nccc12` [harmine hydrochloride], the inhibition at 10 µM in the experiment with BACE1 promoter (SH-SY5Y, 24 h) is ≥ 50%.

On to `CC[C@H](c1ccc(O)cc1)[C@@H](CC)c1ccc(O)cc1` [hexestrol], for which the inhibition at 10 µM in the experiment with BACE1 promoter (setting [1]) was ≥ 50%.

With `COC(=O)Nc1nc2cc(C(=O)c3ccccc3)ccc2[nH]1` [mebendazole], in the experiment on BACE1 proteins (setting [2]), the “amount of expression of BACE1 proteins” value was “decreased at 0.625 μM to 10 μM”. In the experiment with BACE1 promoter (setting [1]), the inhibition at 10 µM was ≥ 50%.

Consider `CCN(CCCCOC(=O)c1ccc(OC)c(OC)c1)C(C)Cc1ccc(OC)cc1` (stereo not drawn) [mebeverine hydrochloride], for which the inhibition at 10 µM in the experiment with BACE1 promoter (setting [1]) is ≥ 50%.

With `CC[C@@]1([C@@H]2O[C@@H]([C@H]3O[C@@](O)(CO)[C@H](C)C[C@@H]3C)C[C@@H]2C)CC[C@H]([C@]2(C)CC[C@]3(C[C@H](O)[C@@H](C)[C@@H]([C@@H](C)[C@@H](OC)[C@H](C)C(=O)O)O3)O2)O1` [monensin sodium salt], the inhibition at 10 µM with BACE1 promoter (setting [1]) is ≥ 50%.

On to `CCCN(CCC)S(=O)(=O)c1ccc(C(=O)O)cc1` [probenecid], for which the inhibition at 10 µM with BACE1 promoter (setting [1]) was ≥ 50%.

Regarding `O=C(c1ccc(OCCN2CCCCC2)cc1)c1c(-c2ccc(O)cc2)sc2cc(O)ccc12` [raloxifene hydrochloride], in the experiment on BACE1 promoter (setting [1]), the inhibition at 10 µM is ≥ 50%.

As for `Nc1ccc(S(=O)(=O)Nc2cnc3ccccc3n2)cc1` [sulfaquinoxaline sodium salt], the inhibition at 10 µM in the experiment on BACE1 promoter (setting [1]) is ≥ 50%.

On to `C=C(NC(=O)C(=C)NC(=O)c1csc(C2=N[C@@H]3c4csc(n4)[C@H]4NC(=O)c5csc(n5)[C@H]([C@](C)(O)[C@@H](C)O)NC(=O)[C@H]5CSC(=N5)/C(=C/C)NC(=O)[C@H]([C@@H](C)O)NC(=O)c5csc(n5)[C@]3(CC2)NC(=O)[C@H](C)NC(=O)C(=C)NC(=O)[C@H](C)NC(=O)[C@H]([C@@H](C)CC)N[C@@H]2C=Cc3c([C@H](C)O)cc(nc3[C@H]2O)C(=O)O[C@@H]4C)n1)C(N)=O` [thiostrepton], for which the inhibition at 10 µM with BACE1 promoter (SH-SY5Y, 24 h) is ≥ 50%.

Regarding `CC[C@@]1(O)C(=O)OCc2c1cc1n(c2=O)Cc2cc3c(CN(C)C)c(O)ccc3nc2-1` [topotecan], the inhibition at 10 µM in the experiment on BACE1 promoter (setting [1]) was ≥ 50%.

In the case of `NC1CCN(c2nc3c(cc2F)c(=O)c(C(=O)O)cn3-c2ccc(F)cc2F)C1` (stereo not drawn) [tosufloxacin hydrochloride], the inhibition at 10 µM in the experiment on BACE1 promoter (setting [1]) is ≥ 50%.

Consider `COc1cc(C(=O)NCc2ccc(OCCN(C)C)cc2)cc(OC)c1OC` [trimethobenzamide hydrochloride], for which the inhibition at 10 µM in the experiment with BACE1 promoter (setting [1]) is ≥ 50%.

On to `CCCOc1ccccc1-c1nc2nn[nH]c2c(=O)[nH]1` [zaprinast], for which the inhibition at 10 µM in the experiment on BACE1 promoter (setting [1]) was ≥ 50%.
